In patent US9707265B2, “Treatment of muscular dystrophy” (The University of Sheffield, priority 2012, dated 2017):
“Also recorded” adds a separate entry of the source. Where a SMILES comes first, the peptide text is derived from it. The star is where a group is joined. Cbz = O=C(OCc1ccccc1)*

Key:
sapje zebrafish = test: Rescue of the dystrophic phenotype (muscle integrity, actin:GFP) in sapje zebrafish embryos; type: in vivo; conditions: sapje embryos treated from 24 hpf; actin:GFP as marker of muscle integrity
Experimental: Zebrafish embryos were collected from group matings of heterozygous sapje ta222a (a dystrophin mutant) and homozygous for a transgene that labels all the fast muscle with GFP (actin:GFP;). At 24 hours post fertilization (hpf) embryos were dechorionated enzymatically, washed and arrayed into multiwell plates with 40 embryos per treatment (5 embryos per well). Sapje embryos are produced at normal Mendelian frequencies, so from 40 embryos we expect 10 homozygote for sapje. Compounds to be tested were added to a final concentration based on available clinical or mouse studies for EC50. All plates included negative controls. Live embryos were assayed for muscle degeneration using actin:GFP as a marker of muscle integrity in sapje fish. Fluorescent scans for GFP along the body axis of wildtype siblings or mutant fish reveal a dramatic profile of fluorescence intensity which clearly distinguished the normal muscle from damaged muscle.

β-dystroglycan [1] = test: Western blot analysis of β-dystroglycan and phosphorylated β-dystroglycan in sapje fish; type: in vivo, zebrafish; conditions: 1 μM MG132, western blot
Experimental: FIG. 16. Illustrates western blot analysis of β-dystroglycan (β-DG) and phosphorylated β-dystroglycan (p β-DG) in sapje fish (blue bars) and in sapje fish treated with 1 μM of the proteasomal inhibitor MG132 (purple bars).

[2] = target: T1, ubiquitin activating enzyme E1 (Homo sapiens, UniProt P22314); conditions: reference 51; cited from earlier work
T1 sequence (P22314 1-1058): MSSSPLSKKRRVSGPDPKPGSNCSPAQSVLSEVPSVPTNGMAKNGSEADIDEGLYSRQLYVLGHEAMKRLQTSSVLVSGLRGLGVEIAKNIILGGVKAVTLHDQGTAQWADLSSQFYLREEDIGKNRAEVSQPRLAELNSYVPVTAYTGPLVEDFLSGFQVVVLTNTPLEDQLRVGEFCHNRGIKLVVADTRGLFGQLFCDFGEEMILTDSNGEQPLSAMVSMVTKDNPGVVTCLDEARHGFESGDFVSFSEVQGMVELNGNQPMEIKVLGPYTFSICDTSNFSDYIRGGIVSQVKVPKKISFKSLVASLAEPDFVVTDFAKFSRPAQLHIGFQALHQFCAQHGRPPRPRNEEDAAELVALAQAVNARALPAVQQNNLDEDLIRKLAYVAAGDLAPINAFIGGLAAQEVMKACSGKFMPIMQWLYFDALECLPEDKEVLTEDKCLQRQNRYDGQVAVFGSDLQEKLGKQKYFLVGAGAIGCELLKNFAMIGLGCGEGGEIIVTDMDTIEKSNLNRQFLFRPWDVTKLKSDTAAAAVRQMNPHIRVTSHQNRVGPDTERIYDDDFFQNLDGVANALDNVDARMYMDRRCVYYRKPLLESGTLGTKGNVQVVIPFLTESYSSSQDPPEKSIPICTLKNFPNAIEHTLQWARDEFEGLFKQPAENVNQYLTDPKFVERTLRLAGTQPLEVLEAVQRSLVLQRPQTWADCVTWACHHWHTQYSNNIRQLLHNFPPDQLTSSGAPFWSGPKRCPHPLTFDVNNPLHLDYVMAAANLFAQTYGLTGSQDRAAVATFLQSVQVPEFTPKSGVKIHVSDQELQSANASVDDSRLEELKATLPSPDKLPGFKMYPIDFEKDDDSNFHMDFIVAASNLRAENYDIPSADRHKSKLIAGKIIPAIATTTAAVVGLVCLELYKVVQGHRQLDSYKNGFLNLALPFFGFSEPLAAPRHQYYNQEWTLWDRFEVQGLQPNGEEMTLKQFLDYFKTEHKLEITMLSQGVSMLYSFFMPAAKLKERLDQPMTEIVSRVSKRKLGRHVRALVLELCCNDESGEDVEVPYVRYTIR

mdx mouse = conditions: Gazzerro et al. 2010; cited from earlier work
β-dystroglycan [3] = test: β-dystroglycan ubiquitination after protein tyrosine phosphatase inhibition in myoblast cells expressing HA-tagged ubiquitin; type: cell-based; conditions: immunoprecipitation and western blot
Description: Tyrosine phosphatases were inhibited in myoblast cells in vitro using peroxyvanadate and samples from cells expressing HA-tagged ubiquitin were taken for immunoprecipitation and western blot analysis. Immunoprecipitation with either the HA tag, or β-dystroglycan at various time points was followed by Western blotting for the HA epitope, β-dystroglycan or tubulin as a loading control.

CC(C)C[C@H](NC(=O)[C@H](CCc1ccccc1)NC(=O)CN1CCOCC1)C(=O)N[C@@H](Cc1ccccc1)C(=O)N[C@@H](CC(C)C)C(=O)[C@@]1(C)CO1 [Carfilzomib]
effect on the dystrophic phenotype of sapje zebrafish (sapje zebrafish): dose dependent rescue

CC(C)C[C@@H](C=O)NC(=O)[C@H](CC(C)C)NC(=O)[C@H](CC(C)C)NC(=O)OCc1ccccc1 [MG132] (Cbz-Leu-Leu-Leu-aldehyde)
amount of non-phosphorylated b-dystroglycan in treated sapje fish (β-dystroglycan [1]): significant increase | amount of phosphorylated b-dystroglycan in treated sapje fish (β-dystroglycan [1]): significant increase | effect on the dystrophic phenotype of sapje zebrafish (sapje zebrafish): dose dependent rescue

CCOC(=O)c1ccc(N2NC(=O)/C(=C/c3ccc([N+](=O)[O-])o3)C2=O)cc1 [Pyr-41]
inhibition of ubiquitin activating enzyme E1 [2]: inhibit the ubiquitin activating enzyme E1 | effect on the dystrophic phenotype of sapje zebrafish (sapje zebrafish): small but positive benefit; also recorded: dose dependent rescue

CC(C)C[C@H](NC(=O)[C@H](Cc1ccccc1)NC(=O)c1cnccn1)B(O)O [bortezomib]
effect on the dystrophic phenotype of sapje zebrafish (sapje zebrafish): Qualitatively similar results; also recorded: dose dependent rescue | restoration of DGC components (mdx mouse): restore DGC components

peroxyvanadate
ubiquitin-β-dystroglycan bands over time course of treatment (β-dystroglycan [3]): increase in the proportion and number of ubiquitin-β-dystroglycan bands
